Data as given in patent US20230340012A1, “NATURAL AND SYNTHETIC COMPOUNDS FOR TREATING CANCER AND OTHER DISEASES” (PACIFIC ARROW LIMITED, priority 2009, published 2023).

Tested on: cancer cells
Assay: MTT cytotoxic assay of esterification products (Cytotoxicity activity)
Assay type: cell-based, human
Summary of the method: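 Cytotoxicity was read by MTT (Carmichael method, modified), with cells seeded 24 h ahead of treatment. Sixteen human cancer lines spanning bone, lung, bladder, ovary, colon, pancreas, prostate, skin, mouth, kidney, breast, liver, brain, leukemia and cervix were used. Test samples were acyl chloride esterification products of triterpenes, as mixtures or HPLC-purified compounds.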

[1] = esterification products isolated with HPLC, graded strong / moderate / weak
[2] = MTT cytotoxic assay, isolated esterification products of E4A
[3] = E4A esterified with Cinnamoyl chloride (Cin = Cinnamoyl), compounds isolated with HPLC
[4] = E4A esterified with Acetyl chloride (Acy = Acetyl), compounds isolated with HPLC
[5] = E4A esterified with Crotonoyl chloride (Cro = Crotonoyl), compounds isolated with HPLC

In the case of `CC=C(C)C(=O)OCC1(C)C(OC(=O)C(C)=CC)CCC2(C)C1CCC1(C)C2CC=C2C3CC(C)(C)C(O)C(OC(=O)C(C)=CC)C3(COC(=O)C(C)=CC)C(O)CC21C` (stereo not drawn) [Tig—R—Ang—6], the Cytotoxicity activity [1] is reported as “weak”.
With `CC=C(C)C(=O)OCC1(C)C(O)CCC2(C)C1CCC1(C)C2CC=C2C3CC(C)(C)C(OC(=O)C(CC)CC)C(O)C3(CO)C(O)CC21C` (stereo not drawn) [Tig—Eth—5] the Cytotoxicity activity [1] was “moderate”.
`CC1(C)CC2C3=CCC4C5(C)CCC(O)C(C)(CO)C5CCC4(C)C3(C)CC(O)C2(COC(=O)c2ccccc2)C(O)C1OC(=O)c1ccccc1` (stereo not drawn) [Compound K25] was tested, and the Cytotoxicity activity (E4A esterified with 2-propenoyl chloride (Ppe = Propenoyl), compounds isolated with HPLC) was “moderate”, the Cytotoxicity activity (E4A esterified with Propionyl chloride (Ppi = Propionyl), compounds isolated with HPLC) was “moderate” and the Cytotoxicity activity (E4A esterified with benzoyl chloride (Ben = benzoyl), compounds isolated with HPLC) was “moderate”. The Cytotoxicity activity (esterification products of core compound E4A with (2E)-2-pentenoyl chloride (2pe = 2-pentenoyl)) was “moderate”, the Cytotoxicity activity (esterification products of core compound E4A with Butyryl chloride (But = Butyryl)) was “moderate” and the Cytotoxicity activity (esterification products of core compound E4A with Decanoyl chloride (Dec = Decanoyl)) was “moderate”. For the same molecule, the Cytotoxicity activity (esterification products of core compound E4A with Isobutyryl chloride (Iso = Isobutyryl)) was “moderate”, the Cytotoxicity activity (esterification products of core compound E4A with Myristoyl chloride (Myr = Myristoyl)) was “moderate” and the Cytotoxicity activity (esterification products of core compound E4A with Octanoyl chloride (Oct = Octanoyl)) was “moderate”.
In the case of `CC=C(C)C(=O)OCC1(C)C(O)CCC2(C)C1CCC1(C)C2CC=C2C3CC(C)(C)C(O)C(OC(=O)C(C)=CC)C3(CO)C(O)CC21C` (stereo not drawn) [Tig—Ang—6], the Cytotoxicity activity [1] is reported as “moderate”.
With `CC=C(C)C(=O)OCC1(C)C(O)CCC2(C)C1CCC1(C)C2CC=C2C3CC(C)(C)C(O)C(OC(=O)C(C)=CC)C3(COC(=O)C(C)=CC)C(OC(=O)C(C)=CC)CC21C` (stereo not drawn) [Compound A12] the Cytotoxicity activity [2] was “weak”.
With `CC(C)=CC(=O)OCC1(C)C(OC(=O)C=C(C)C)CCC2(C)C1CCC1(C)C2CC=C2C3CC(C)(C)C(OC(=O)C=C(C)C)C(O)C3(COC(=O)C=C(C)C)C(O)CC21C` (stereo not drawn) [Compound B11] the Cytotoxicity activity [2] was “weak”.
In the case of `CC1(C)CC2C3=CCC4C5(C)CCC(O)C(C)(COC(=O)C=Cc6ccccc6)C5CCC4(C)C3(C)CC(OC(=O)C=Cc3ccccc3)C2(CO)C(O)C1O` (stereo not drawn) [Compound J32], the Cytotoxicity activity [3] is reported as “moderate”.
In the case of `CC(=O)OCC1(C)C(OC(C)=O)CCC2(C)C1CCC1(C)C2CC=C2C3CC(C)(C)C(OC(C)=O)C(OC(C)=O)C3(COC(C)=O)C(O)CC21C` (stereo not drawn) [Compound H15], the Cytotoxicity activity [4] is reported as “weak”.
For `CC=CC(=O)OC1CCC2(C)C(CCC3(C)C2CC=C2C4CC(C)(C)C(O)C(O)C4(COC(=O)C(C)=CC)C(O)CC23C)C1(C)COC(=O)C(C)=CC` (stereo not drawn) [Tig—R—Cro—4], the Cytotoxicity activity [1] was “moderate”.
For `CC1(C)CC2C3=CCC4C5(C)CCC(O)C(C)(CO)C5CCC4(C)C3(C)CC(O)C2(COC(=O)C=Cc2ccccc2)C(O)C1OC(=O)C=Cc1ccccc1` (stereo not drawn) [Compound J25], the Cytotoxicity activity [3] was “moderate”.
`CC=CC(=O)OC1C(O)C(C)(C)CC2C3=CCC4C5(C)CCC(O)C(C)(COC(=O)C(C)=CC)C5CCC4(C)C3(C)CC(O)C21CO` (stereo not drawn) [Tig—Cro—6] was tested, and the Cytotoxicity activity [1] was “moderate”.
For `CC=C(C)C(=O)OCC1(C)C(OC(=O)C(C)=CC)CCC2(C)C1CCC1(C)C2CC=C2C3CC(C)(C)C(OC(=O)C(C)=CC)C(O)C3(COC(=O)C(C)=CC)C(O)CC21C` (stereo not drawn) [Tig—R—Ang—5], the Cytotoxicity activity [1] was “weak”.
With `CC=C(C)C(=O)OCC1(C)C(O)CCC2(C)C1CCC1(C)C2CC=C2C3CC(C)(C)C(OC(=O)C(C)=CC)C(O)C3(CO)C(O)CC21C` (stereo not drawn) [Tig—Ang—5] the Cytotoxicity activity [1] was “moderate”.
`CC=C(C)C(=O)OCC1(C)C(OC(=O)CCCCC)CCC2(C)C1CCC1(C)C2CC=C2C3CC(C)(C)C(OC(=O)CCCCC)C(O)C3(COC(=O)C(C)=CC)C(O)CC21C` (stereo not drawn) [Tig—R—Hex—5] was tested, and the Cytotoxicity activity [1] was “weak”.
In the case of `CC=C(C)C(=O)OCC1(C)C(O)CCC2(C)C1CCC1(C)C2CC=C2C3CC(C)(C)C(OC(=O)C(C)=CC)C(OC(=O)C(C)=CC)C3(COC(=O)C(C)=CC)C(O)CC21C` (stereo not drawn) [Tig—R—Ang—1], the Cytotoxicity activity [1] is reported as “weak”.
For `CC(=O)OCC1(C)C(OC(C)=O)CCC2(C)C1CCC1(C)C2CC=C2C3CC(C)(C)C(O)C(OC(C)=O)C3(COC(C)=O)C(O)CC21C` (stereo not drawn) [Compound H14], the Cytotoxicity activity [4] was “weak”.
`CC1(C)CC2C3=CCC4C5(C)CCC(O)C(C)(COC(=O)C=Cc6ccccc6)C5CCC4(C)C3(C)CC(O)C2(CO)C(OC(=O)C=Cc2ccccc2)C1OC(=O)C=Cc1ccccc1` (stereo not drawn) [Compound J21] was tested, and the Cytotoxicity activity [3] was “moderate”.
For `CC(=O)OCC1(C)C(OC(C)=O)CCC2(C)C1CCC1(C)C2CC=C2C3CC(C)(C)C(OC(C)=O)C(OC(C)=O)C3(COC(C)=O)C(OC(C)=O)CC21C` (stereo not drawn) [Compound H19], the Cytotoxicity activity [4] was “none”.
For `CC(=O)OC1C(OC(C)=O)C2(CO)C(O)CC3(C)C(=CCC4C5(C)CCC(O)C(C)(CO)C5CCC43C)C2CC1(C)C` (stereo not drawn) [Compound H24], the Cytotoxicity activity [4] was “moderate”.
`CC(=O)OCC1(C)C(O)CCC2(C)C1CCC1(C)C2CC=C2C3CC(C)(C)C(O)C(OC(C)=O)C3(COC(C)=O)C(OC(C)=O)CC21C` (stereo not drawn) [Compound H12] was tested, and the Cytotoxicity activity [4] was “weak”.
For `CC=CC(=O)OCC1(C)C(OC(=O)C=CC)CCC2(C)C1CCC1(C)C2CC=C2C3CC(C)(C)C(OC(=O)C=CC)C(O)C3(COC(=O)C=CC)C(OC(=O)C=CC)CC21C` (stereo not drawn) [Compound I17], the Cytotoxicity activity [5] was “weak”.
With `CC=CC(=O)OCC1(C)C(OC(=O)C=CC)CCC2(C)C1CCC1(C)C2CC=C2C3CC(C)(C)C(O)C(O)C3(COC(=O)C=CC)C(O)CC21C` (stereo not drawn) [Compound I6] the Cytotoxicity activity [5] was “moderate”.
For `CC(C)=CC(=O)OCC1(C)C(O)CCC2(C)C1CCC1(C)C2CC=C2C3CC(C)(C)C(OC(=O)C=C(C)C)C(OC(=O)C=C(C)C)C3(COC(=O)C=C(C)C)C(O)CC21C` (stereo not drawn) [Compound B8], the Cytotoxicity activity [2] was “weak”.
`CC(=O)OCC1(C)C(OC(C)=O)CCC2(C)C1CCC1(C)C2CC=C2C3CC(C)(C)C(OC(C)=O)C(O)C3(COC(C)=O)C(O)CC21C` (stereo not drawn) [Compound H11] was tested, and the Cytotoxicity activity [4] was “weak”.
In the case of `CCC(CC)C(=O)OCC1(C)C(O)CCC2(C)C1CCC1(C)C2CC=C2C3CC(C)(C)C(OC(=O)C(CC)CC)C(O)C3(COC(=O)C(CC)CC)C(O)CC21C` (stereo not drawn) [Compound E4], the Cytotoxicity activity [2] is reported as “moderate”.
In the case of `CC=C(C)C(=O)OCC1(C)C(OC(=O)C=C(C)C)CCC2(C)C1CCC1(C)C2CC=C2C3CC(C)(C)C(O)C(O)C3(COC(=O)C=C(C)C)C(O)CC21C` (stereo not drawn) [Tig—Sen—4], the Cytotoxicity activity (esterification products of E4A—Tig—N with senecioyl chloride) is reported as “moderate”.
`CC=CC(=O)OCC12C(O)CC3(C)C(=CCC4C5(C)CCC(O)C(C)(CO)C5CCC43C)C1CC(C)(C)C(O)C2OC(=O)C=CC` (stereo not drawn) [Compound I26] was tested, and the Cytotoxicity activity [5] was “moderate”.
In the case of `CC(=O)OCC1(C)C(O)CCC2(C)C1CCC1(C)C2CC=C2C3CC(C)(C)C(O)C(O)C3(CO)C(OC(C)=O)CC21C` (stereo not drawn) [Compound H32], the Cytotoxicity activity [4] is reported as “moderate”.
With `CCCCCC(=O)OCC12C(O)CC3(C)C(=CCC4C5(C)CCC(O)C(C)(CO)C5CCC43C)C1CC(C)(C)C(OC(=O)CCCCC)C2O` (stereo not drawn) [Compound D25] the Cytotoxicity activity [2] was “moderate”.
With `CCCCCC(=O)OCC12C(O)CC3(C)C(=CCC4C5(C)CCC(OC(=O)CCCCC)C(C)(CO)C5CCC43C)C1CC(C)(C)C(O)C2O` (stereo not drawn) [Compound D27] the Cytotoxicity activity [2] was “moderate”.
With `CCC(CC)C(=O)OCC1(C)C(O)CCC2(C)C1CCC1(C)C2CC=C2C3CC(C)(C)C(O)C(O)C3(COC(=O)C(CC)CC)C(OC(=O)C(CC)CC)CC21C` (stereo not drawn) [Compound E7] the Cytotoxicity activity [2] was “moderate”.
`CC=C(C)C(=O)OCC1(C)C(O)CCC2(C)C1CCC1(C)C2CC=C2C3CC(C)(C)C(O)C(OC(=O)C(CC)CC)C3(COC(=O)C(CC)CC)C(O)CC21C` (stereo not drawn) [Tig—Eth—3] was tested, and the Cytotoxicity activity [1] was “moderate”.
`C=CCCC(=O)OCC12C(O)CC3(C)C(=CCC4C5(C)CCC(O)C(C)(CO)C5CCC43C)C1CC(C)(C)C(OC(=O)CCC=C)C2OC(=O)CCC=C` (stereo not drawn) [Compound C20] was tested, and the Cytotoxicity activity [2] was “moderate”.
`CC1(C)CC2C3=CCC4C5(C)CCC(O)C(C)(COC(=O)C=Cc6ccccc6)C5CCC4(C)C3(C)CC(OC(=O)C=Cc3ccccc3)C2(COC(=O)C=Cc2ccccc2)C(OC(=O)C=Cc2ccccc2)C1O` (stereo not drawn) [Compound J12] was tested, and the Cytotoxicity activity [3] was “weak”.
In the case of `CC(=O)OCC1(C)C(OC(C)=O)CCC2(C)C1CCC1(C)C2CC=C2C3CC(C)(C)C(O)C(O)C3(CO)C(O)CC21C` (stereo not drawn) [Compound H31], the Cytotoxicity activity [4] is reported as “moderate”.
`CC=C(C)C(=O)OCC1(C)C(O)CCC2(C)C1CCC1(C)C2CC=C2C3CC(C)(C)C(OC(=O)C(CC)CC)C(OC(=O)C(CC)CC)C3(COC(=O)C(C)=CC)C(O)CC21C` (stereo not drawn) [Tig—R—Eth—1] was tested, and the Cytotoxicity activity [1] was “weak”.
`C=CCCC(=O)OC1C(O)C2(COC(=O)C(C)=CC)C(O)CC3(C)C(=CCC4C5(C)CCC(O)C(C)(COC(=O)C(C)=CC)C5CCC43C)C2CC1(C)C` (stereo not drawn) [Tig—R—Pen—2] was tested, and the Cytotoxicity activity [1] was “moderate”.
With `CC=C(C)C(=O)OCC1(C)C(O)CCC2(C)C1CCC1(C)C2CC=C2C3CC(C)(C)C(O)C(O)C3(COC(=O)C(CC)CC)C(O)CC21C` (stereo not drawn) [Tig—Eth—1] the Cytotoxicity activity [1] was “strong”.
With `CC=C(C)C(=O)OCC1(C)C(OC(C)=O)CCC2(C)C1CCC1(C)C2CC=C2C3CC(C)(C)C(O)C(O)C3(COC(C)=O)C(O)CC21C` (stereo not drawn) [Tig—Acy—4] the Cytotoxicity activity [1] was “moderate”.
With `CC(=O)OCC1(C)C(OC(C)=O)CCC2(C)C1CCC1(C)C2CC=C2C3CC(C)(C)C(O)C(OC(C)=O)C3(COC(C)=O)C(OC(C)=O)CC21C` (stereo not drawn) [Compound H18] the Cytotoxicity activity [4] was “weak”.
`CC(C)=CC(=O)OCC1(C)C(OC(=O)C=C(C)C)CCC2(C)C1CCC1(C)C2CC=C2C3CC(C)(C)C(O)C(O)C3(COC(=O)C=C(C)C)C(OC(=O)C=C(C)C)CC21C` (stereo not drawn) [Compound B10] was tested, and the Cytotoxicity activity [2] was “weak”.
With `CC=C(C)C(=O)OCC1(C)C(O)CCC2(C)C1CCC1(C)C2CC=C2C3CC(C)(C)C(OC(C)=O)C(O)C3(COC(C)=O)C(O)CC21C` (stereo not drawn) [Tig—Acy—2] the Cytotoxicity activity [1] was “moderate”.
For `CC=C(C)C(=O)OCC1(C)C(OC(=O)C(C)=CC)CCC2(C)C1CCC1(C)C2CC=C2C3CC(C)(C)C(O)C(O)C3(COC(=O)C(C)=CC)C(O)CC21C` (stereo not drawn) [Tig—Ang—4], the Cytotoxicity activity [1] was “moderate”.
